# In patent publication US11464749B2, “Bismuth-thiol compositions and methods of use” (Microbion Corporation, priority 2018, dated 2022):
# Like-named read-outs stand apart in the source and are kept apart here.
# Columns and labels:
# [1] = system: Escherichia coli; assay: Broth microdilution MIC (Example 11)
# [2] = system: E. faecalis; assay: Broth microdilution MIC (Example 11); details: Enterococcus faecalis, VRE, VRE Lev^R Cip^R Ery^R
# [3] = system: Acinetobacter baumannii; assay: Broth microdilution MIC (Example 12); details: Acinetobacter baumannii
# [4] = system: Klebsiella pneumoniae; assay: Broth microdilution MIC (Example 11)
# [5] = system: S. pneumoniae; assay: Broth microdilution MIC (Example 11); details: Streptococcus pneumoniae
# [6] = system: Enterobacter cloacae; assay: Broth microdilution MIC (Example 11); details: ATCCBAA2468
# [7] = system: Pseudomonas aeruginosa; assay: Broth microdilution MIC (Example 12); details: Pseudomonas aeruginosa
# [8] = system: S. agalactiae; assay: Broth microdilution MIC (Example 11); details: Streptococcus agalactiae
# [9] = system: Escherichia coli; assay: Broth microdilution MIC (Example 12); details: Escherichia coli
# [10] = system: S. pyogenes; assay: Broth microdilution MIC (Example 11); details: Streptococcus pyogenes
# [11] = system: Pseudomonas aeruginosa; assay: Broth microdilution MIC (Example 11); details: Pseudomonas aeruginosa
# [12] = system: Acinetobacter baumannii; assay: Broth microdilution MIC (Example 11); details: Acinetobacter baumannii
# [13] = system: Staphylococcus aureus (MRSA); assay: Broth microdilution MIC (Example 11)
# [14] = system: Pseudomonas aeruginosa strain PA01; assay: Bacterial killing curves with and without CF patient sputum; set-up: time to sterilization below the limit of detection: dose or concentration left out as unconfirmed
compound,measurement,setting,value
"CC(S)C(C)S.[Bi] (stereo not shown) [BisBDT, bismuth-2,3-butanedithiol]",MIC,"[1]; ATCC25922, E. coli MMX 102 (ATCC 25922), QC",0.5 µg/mL
same,MIC,"[1]; ATCCBAA2469, E. coli MMX 5980 (ATCC BAA-2469), NDM-1, Lev^R, MEM^R, CAZ^R, Gm^R",1 µg/mL
same,MIC,"[1]; E. coli MMX 8423, ESBL, Lev^R, CAZ^R, Gm^R",1 µg/mL
same,MIC,"[1]; E. coli MMX 8424, ESBL, CAZ^R",0.5 µg/mL
same,MIC,"[1]; E. coli MMX 8425, ESBL, Lev^R, CAZ^R, Gm^R",1 µg/mL
same,MIC,[2]; E. faecalis MMX 8960,0.5 µg/mL
same,MIC,[2]; E. faecalis MMX 8961,0.25 µg/mL
same,MIC,[2]; E. faecalis MMX 8962,0.25 µg/mL
same,MIC,"[3]; A. baumannii CDC 273, ESBL/OXA",0.5 µg/mL
same,MIC,"[3]; A. baumannii CDC 274, ESBL/OXA",0.5 µg/mL
same,MIC,"[3]; A. baumannii CDC 275, ESBL/OXA",0.5 µg/mL
same,MIC,"[3]; A. baumannii CDC 277, ESBL/OXA",1 µg/mL
same,MIC,"[3]; A. baumannii CDC 284, ESBL/OXA",1 µg/mL
same,MIC,"[3]; A. baumannii CDC 307, OXA",0.5 µg/mL
same,MIC,"[3]; A. baumannii CDC 308, ESBL/OXA",0.5 µg/mL
same,MIC,"[3]; A. baumannii CDC 311, OXA",0.5 µg/mL
same,MIC,"[3]; A. baumannii CDC 312, OXA",0.5 µg/mL
same,MIC,"[3]; A. baumannii CDC 313, ESBL/OXA",0.5 µg/mL
same,MIC,"[3]; NCTC13304, A. baumannii NCTC 13304, OXA",0.5 µg/mL
same,MIC,"[4]; K. pneumoniae MMX 4622, KPC-2, MEM^R, CAZ^R",1 µg/mL
same,MIC,"[4]; K. pneumoniae MMX 4623, KPC-2, MEM^R, CAZ^R, GM^R",0.5 µg/mL
same,MIC,"[4]; K. pneumoniae MMX 4653, KPC-3, Lev^R, MEM^R, CAZ^R",2 µg/mL
same,MIC,"[4]; K. pneumoniae MMX 4683, KPC-2, Lev^R, MEM^R, CAZ^R",1 µg/mL
same,MIC,"[4]; K. pneumoniae MMX 4684, ESBL, MEM^R",2 µg/mL
same,MIC,"[4]; K. pneumoniae MMX 4685, ESBL, Lev^R, MEM^R, CAZ^R",1 µg/mL
same,MIC,"[4]; K. pneumoniae MMX 4694, KPC-3, Lev^R, MEM^R, CAZ^R",1 µg/mL
same,MIC,"[4]; K. pneumoniae MMX 5979, NDM-1, Lev^R, MEM^R, CAZ^R, Gm^R",1 µg/mL
same,MIC,"[5]; ATCC49619, S. pneumoniae MMX 6837 (ATCC 49619), QC",0.5 µg/mL
same,MIC,"[5]; S. pneumoniae MMX 880, Lev^R SXT^R CC^R Ery^R Pen^R",0.5 µg/mL
same,MIC,"[5]; S. pneumoniae MMX 937, Mem^R SXT^R CC^R Ery^R Pen^R",8 µg/mL
same,MIC,"[5]; S. pneumoniae MMX 3959, CC^R Ery^R",1 µg/mL
same,MIC,"[5]; S. pneumoniae MMX 5440, Mem^R SXT^R CC^R Ery^R Pen^R",0.5 µg/mL
same,MIC,"[5]; S. pneumoniae MMX 5445, Mem^R SXT^R CC^R Ery^R Pen^R",0.5 µg/mL
same,MIC,"[5]; S. pneumoniae MMX 8133, Mem^R SXT^R CC^R Ery^R Pen^R",0.5 µg/mL
same,MIC,"[5]; read-out: MIC values, pneumococci incl. multi-drug resistant",0.5 to 8 µg/mL
same,MIC,[6],2 µg/mL
same,MIC,"[7]; ATCC27853, P. aeruginosa ATCC 27853, QC organism",1 µg/mL
same,MIC,"[7]; P. aeruginosa CDC 230, VIM/OXA",2 µg/mL
same,MIC,"[7]; P. aeruginosa CDC 231, KPC/OXA",2 µg/mL
same,MIC,"[7]; P. aeruginosa CDC 241, IMP/OXA",8 µg/mL
same,MIC,"[7]; P. aeruginosa CDC 246, NDM/OXA",2 µg/mL
same,MIC,"[7]; P. aeruginosa CDC 250, NDM/OXA",2 µg/mL
same,MIC,"[7]; P. aeruginosa CDC 356, KPC",1 µg/mL
same,MIC,"[7]; P. aeruginosa CDC 439, IMP",1 µg/mL
same,MIC,"[7]; P. aeruginosa CDC 444, VIM",1 µg/mL
same,MIC,"[7]; P. aeruginosa CDC 457, VIM",2 µg/mL
same,MIC,"[7]; P. aeruginosa CDC 516, KPC/AmpC",1 µg/mL
same,MIC,"[7]; P. aeruginosa CDC 518, KPC/AmpC",1 µg/mL
same,MIC,"[8]; S. agalactiae MMX 3741, ERY^R CC^R",0.25 µg/mL
same,MIC,"[8]; S. agalactiae MMX 3743, ERY^R CC^R",0.25 µg/mL
same,MIC,"[8]; S. agalactiae MMX 4077, ERY^R CC^R",0.25 µg/mL
same,MIC,"[8]; S. agalactiae MMX 4079, ERY^R CC^R Pen^R MEM^R",0.5 µg/mL
same,MIC,"[8]; S. agalactiae MMX 4086, ERY^R CC^R",0.25 µg/mL
same,MIC,"[9]; ATCC25922, E. coli ATCC 25922, QC organism",1 µg/mL
same,MIC,"[9]; ATCC35218, E. coli ATCC 35218, ESBL",1 µg/mL
same,MIC,"[9]; ATCC35218, E. coli ATCC 35218, QC organism (Table 102)",1 µg/mL
same,MIC,"[9]; ATCCBAA2471, E. coli ATCC BAA-2471, NDM",2 µg/mL
same,MIC,"[9]; E. coli CDC 114, ESBL/KPC",2 µg/mL
same,MIC,"[9]; E. coli CDC 118, ESBL/NDM",1 µg/mL
same,MIC,"[9]; E. coli CDC 435, NDM",1 µg/mL
same,MIC,"[9]; E. coli CDC 451, KPC",1 µg/mL
same,MIC,"[9]; E. coli CDC 503, ESBL/NDM",2 µg/mL
same,MIC,"[9]; E. coli MMX 5745, KPC",2 µg/mL
same,MIC,"[9]; E. coli MMX 5755, ESBL",2 µg/mL
same,MIC,"[9]; E. coli MMX 5756, ESBL",1 µg/mL
same,MIC,"[9]; E. coli MMX 5758, ESBL",1 µg/mL
same,MIC,"[10]; S. pyogenes MMX 3068, Ery^R",0.12 µg/mL
same,MIC,"[10]; S. pyogenes MMX 3820, ERY^R CLI^R",0.5 µg/mL
same,MIC,"[10]; S. pyogenes MMX 3919, ERY^R",0.03 µg/mL
same,MIC,"[10]; S. pyogenes MMX 3929, ERY^R CC^R",0.5 µg/mL
same,MIC,"[10]; S. pyogenes MMX 5091, ERY^R CC^R",1 µg/mL
same,MIC,"[11]; ATCC27853, P. aeruginosa MMX 103 (ATCC 27853), QC",1 µg/mL
same,MIC,"[11]; P. aeruginosa MMX 1381, MDR, Lev^R, Cip^R, MEM^R, CAZ^R",1 µg/mL
same,MIC,"[11]; P. aeruginosa MMX 2562, MDR, Lev^R, Cip^R, MEM^R, CAZ^R",2 µg/mL
same,MIC,"[11]; P. aeruginosa MMX 3991, MDR, Lev^R, Cip^R, MEM^R, CAZ^R",2 µg/mL
same,MIC,"[11]; P. aeruginosa MMX 4654, IMP-7, Lev^R, Cip^R, MEM^R, CAZ^R",2 µg/mL
same,MIC,"[11]; P. aeruginosa MMX 4697, VIM-2, Lev^R, Cip^R, MEM^R, CAZ^R",2 µg/mL
same,MIC,"[12]; A. baumannii MMX 2592, MDR, Lev^R, Cip^R, MEM^R, CAZ^R, Gm^R",0.5 µg/mL
same,MIC,"[12]; A. baumannii MMX 2593, MDR, Lev^R, Cip^R, MEM^R, CAZ^R, Gm^R",0.5 µg/mL
same,MIC,"[12]; A. baumannii MMX 3372, MDR, Cip^R, MEM^I, CAZ^I",1 µg/mL
same,MIC,"[12]; A. baumannii MMX 3373, Sensitive",0.5 µg/mL
same,MIC,"[12]; NCTC13304, A. baumannii MMX 4651 (NCTC 13304), MDR, OXA-27, Lev^R, Cip^R, MEM^R, CAZ^R, Gm^I",0.5 µg/mL
same,MIC,[13]; ATCC29213 / MRSA / MSSA,≤ 0.06 µg/mL
same,MIC,[13]; MRSA,≤ 0.06 µg/mL
same,MIC,"[13]; MRSA, read-out: MIC values",< 0.06 µg/mL
same,bactericidal activity against PA01,[14]; 0.1 μg/mL,not bactericidal
same,effect of CF patient sputum on bactericidal activity,[14]; 10% CF patient sputum,partially inhibited
same,time to sterilization below the limit of detection,[14]; with and without sputum,≤ 5 h
